From PMC11874377, “Fungal-derived methyldeoxaphomins target Plasmodium falciparum segregation through the inhibition of PfActin1” (Proceedings of the National Academy of Sciences of the …, 2025)

Tested on: Plasmodium falciparum Dd2-Pol δ
Test: In vitro evolution of resistance, bulk culture populations
Type: cell-based
Details: after selection from 90 nM to 17 μM over 6.3 mo
Experimental: We next sought to identify the molecular target of NPDG-F using in vitro evolution in a hypermutator line Dd2-Pol δ. This line was created to facilitate faster resistance development through the modification of the catalytic residues in DNA polymerase δ via CRISPR-Cas9 ([13]). Three populations of parasites grown in parallel were exposed to increasing concentrations of NPDG-F from the initial 90 nM to a final concentration of 17 μM over 6.3 mo. Once resistance (~4.2-fold) was identified in the 3 bulk culture populations, parasite DNA was extracted, followed by library preparation and whole-genome sequencing. […]
The in vitro evolution was conducted using Plasmodium falciparum Dd2-Pol δ. […] Every 2 or 3 days, parasitemia was determined via Giemsa smear and reset to 2% (for a 3-day split, 1.6 X108 parasites) or 3% (for a 2-day split, 2.4 X108). […] Resistance development was monitored every 3 months through SYBR green I- based EC50 dose response assay as described above. […]
Parasite genomic DNA was extracted from the parent and the resistant lines using DNeasy Blood & Tissue Kit (Qiagen). […] The pooled libraries were sequenced on Illumina NovaSeq 6000 with S4 200 chemistry to generate paired end reads with 100bp in length.
Reads were aligned to Plasmodium falciparum reference genome 3D7 (PlasmoDB v13.0) using an in-house pipeline (Cowell & Winzeler, 2019). […]

How did the “resistance in the 3 bulk culture populations” value turn out when `C=C1C(C)C2C(Cc3ccccc3)NC(=O)C23C(=O)C=CC(O)C(O)C(C)CC(C)CC=CC3C1O` (stereo not shown) [Methyldeoxaphomin NPDG-F] was run?
Its value is ~ 4.2 fold.
